Source: a melting point compilation (Tetko et al.; mined from patent text by program, amines drawn as free bases though some values may be those of a salt)

SMILES | melting point [°C]
O=C(O)Cc1nc(-c2ccc(F)cc2)oc1-c1ccoc1 | 208 to 209
CCCN1CCNC1=C[N+](=O)[O-] | 147 to 148
CN(C(=O)Nc1ccc2ccccc2c1)c1cccc(-c2ccc(CCC(=O)O)cc2)c1 | 170 to 171
CCCCCCCCCCCCCCOCC(CI)(CI)COCCCCCCCCCCCCCC | 27 to 28
COc1cccc([C@@]23CCC[C@@H]2C(=O)N(C)CCC3)c1 (relative stereo) | 96 to 99
CCCc1nc2c(N)nc3cc(OCc4ccccc4)ccc3c2n1CC(C)C | 206 to 208
c1ccc(C(Oc2ccc(-c3nc(COc4ccc(CCCn5ccnc5)cc4)co3)cc2)c2ccccc2)cc1 | 106 to 107
O=C1OC(=O)c2cc3ncccc3c3cc([N+](=O)[O-])cc1c23 | > 300
Oc1nccc2ccncc12 | 260 to 262
O=C(c1cccs1)c1cnn2c(-c3cccc(-c4nnn(CCN5CCCCC5)n4)c3)ccnc12 | 117
CCOC(=O)Cc1csc(N=C2SC[C@@H]3Cc4ccccc4CN23)n1 | 105
CCOC(=O)COc1cc2c(c(Cl)c1Cl)C(=O)C(c1ccc(Cl)cc1)C2 (stereo not given) | 160
CCOC(=O)Cn1nnnc1S(=O)(=O)c1ccc(C)cc1 | 98 to 100
O=C(O)c1cccc(Oc2ncccc2OCCCc2ccncc2)c1 | 208 to 209
Cc1c(C(=O)O)ccc(S(C)(=O)=O)c1-c1ccc(S(C)(=O)=O)cc1 | 214 to 215
Cc1c(-c2ccccc2)[nH]c(=O)n1C1CCN(Cc2cccc(Br)c2)CC1 | 263 to 265
COC(=O)CNC(=O)c1ccc(C(=O)NS(=O)(=O)c2ccc(OC)cc2)cn1 | 150 to 152
CC(C)(C)CC(=O)N1CCC(c2ccc(COc3ccc(S(C)(=O)=O)cc3)nc2)CC1 | 140 to 142
CC(=O)OC1CSC(Oc2cncc(-c3ccc(F)cc3C)c2)C(OC(C)=O)C1OC(C)=O (stereo not given) | 120
COc1ccc([C@H]2[C@@H](c3ccccc3)C2(Cl)Cl)cc1 (relative stereo) | 59 to 60
[N-]=[N+]=NCC(=O)Nc1ccc(S(=O)(=O)c2ccc(F)cc2)cc1 | 181 to 184
O=C(NCc1c(Cl)cccc1Oc1ccccc1)C1CCc2[nH]cnc2C1 (stereo not given) | 197 to 199
NC(=O)c1nc2n(n1)-c1ccc(Cl)cc1C(c1ccccc1)=NC2 | 252 to 254
CCOC(=O)C(=O)Nc1cccc(NC(=O)C(=O)OCC)n1 | 179 to 180
COc1cc(C)nc(NC(=O)NS(=O)(=O)c2cc([N+](=O)[O-])cs2)n1 | 155

SMILES | melting point [°C]
O=C(NCc1ccc(Cl)cc1)c1cn2c3c(cc(I)cc3c1=O)CC2CO (stereo not given) | 222 to 223
CC1CC(N)=NN1c1ccc(Cl)cn1 (stereo not given) | 168 to 170
Cn1nnnc1SCCCCN1C(=O)c2ccccc2C1=O | 92 to 93
CCOC(=O)C(=O)Nc1c([N+](=O)[O-])sc2cc(OC)ccc12 | 195 to 196
COC(=O)C(=O)c1ccc(OCCOc2ccc3ccccc3c2)cc1Cl | 123 to 125
CC12CC(N3CCC4(CC3)OCCO4)C(O)CC1CCC1C2CCC2(C)C(O)C(N3CCCC3)CC12 (stereo not given) | 184 to 187
Cc1c(SCC(=O)N2CCOC(CN(C)C)C2)ccnc1CSc1nc2ccccc2[nH]1 (stereo not given) | 160
CCCc1nc(N)nc(N)c1N1CCN(c2ccc(C(=O)OCC)cc2)CC1 | 215 to 216
ON=c1cc(-c2cnccn2)ss1 | 262
CC1(C)CC(=O)C(=C(O)COc2ccc(Cl)cc2Cl)C(=O)C1 | 170 to 175
O=C(O)c1c(Sc2ccccc2)c2ccccc2n1-c1ccc2c(c1)OCO2 | 182 to 183
O=C(NC(=O)c1c(F)cccc1F)Nc1cccc(S(=O)(=O)C(F)(F)C(F)Cl)c1 (stereo not given) | 192 to 194
CC(=O)/C(=N/O[C@H]1CC[C@H](C(=O)N(C)C)CC1)C(=O)OC(C)(C)C | 109 to 110
CCOC(=O)c1nc2sc(C(C)C)cc2c(=O)o1 | 87.5 to 88.5
CCOc1ccc(S(=O)c2ccccc2)cc1[N+](=O)[O-] (stereo not given) | 119 to 121
CCOCc1nc2c(N)nc3cccnc3c2n1CC1(O)CCCCC1 | 171 to 173
CC(C)S(=O)(=O)c1ccc2c(c1)nc(CC1(C)CCCC1)n2CC1CC1 | 122
CC(C)C(=O)Nc1nc2c(ncn2C2OC(CO)C(O)C2OC2CCCO2)c(=O)[nH]1 (stereo not given) | 178 to 180
CN1CC(CCC#N)Oc2ncccc2C1=S (stereo not given) | 155 to 156
CCOCc1nc2cnc(C)c(C)c2n1NC1CCOCC1 | 94 to 97
CC(C)COc1c(-c2ccc(S(N)(=O)=O)c(F)c2)cnn(CC(F)(F)F)c1=O | 163 to 164
O=C(O)c1ccc(C(Cl)=C(Cl)Cl)cn1 | 158 to 159
CSc1nn2c(-n3ccnc3)cc(C)nc2c1S(=O)(=O)c1ccccc1 | > 230
CCOC(=O)COc1ccc2c(c1)C(=O)C(Br)CC2 (stereo not given) | 91 to 93
COc1ccc(N2C(=O)c3cccc(OC)c3NC2c2ccc(OCCCl)cc2)cc1 (stereo not given) | 122 to 124

SMILES | melting point [°C]
O=C1CCN(Cc2ccccc2O)CC1C(c1ccccc1)c1ccccc1 (stereo not given) | 109 to 110
CCS(=O)(=O)c1cc(C(=O)NCC2CCCN2CC2=CCCCC2)c(OC)cc1N (stereo not given) | 192
CC(SC(=O)c1ccccc1)C(=O)N1c2ccccc2CCC1C(=O)O (stereo not given) | 157 to 159
O=C(OCC1OC(c2ccc(Cl)c(Cc3cc4ccccc4s3)c2)C(OC(=O)c2ccccc2)C(OC(=O)c2ccccc2)C1F)c1ccccc1 (stereo not given) | 204 to 207
CS(=O)(=O)c1ccc(-c2cc(CCCO[N+](=O)[O-])nn2CC2CCCCC2)cc1 | 76 to 77
Cc1cc2n(C)c(=O)c3cnccc3n2n1 | > 300
O=Cc1cncc2ncc(-c3ccccc3)cc12 | 148
CCCCC(=O)N(CCCCn1ccnc1)C1=Nc2cccc3cccc1c23 | 110 to 112
COc1cc(C)c(NS(C)(=O)=O)cc1C(=O)NCC(Cl)CCCCl (stereo not given) | 132
NC(=O)N(O)Cc1ccco1 | 128 to 131
CC(C)(C)c1cc(CC2SCNC2=O)ccc1O (stereo not given) | 65 to 70
CCCCCCCCS(=O)(=O)C(Cl)S(N)(=O)=O (stereo not given) | 73 to 74
CCCc1c(OCCCOc2ccc(C(=O)CCC(=O)O)c(Cl)c2Cl)ccc(C(C)=O)c1O | 119 to 123
CC(=O)Nc1ccc(C(=O)Nc2ccccc2NC(=O)CN)cc1 | 215 to 218
COc1cc(N(C)C)ccc1CN1C(=O)C(C)(c2ccccc2Cl)c2cc(Cl)ccc21 (stereo not given) | 135
CN(c1ccccc1)S(=O)(=O)c1ccc(C=CC(C)(O)C(F)(F)F)cc1 (stereo not given) | 146 to 148
c1ccc2c(c1)Nc1cc(-c3csc(CN4CCSCC4)n3)ccc1S2 | 229 to 231
ICCCOc1ccc(OCCCI)cc1 | 93 to 95
COc1cc(C)c(Cl)cn1 | 32 to 33
O=C(O)c1cc2c(Cl)cccc2s1 | 227 to 231
O=[N+]([O-])c1cncn1CCO | 101 to 102
NC(=O)c1ccc(CCC[N@]2C[C@@H]2c2ccccc2)s1 | 117 to 119
NC(=O)c1nc(-c2cccnc2)nc2c1[nH]c(=O)n2Cc1ccccc1 | 334 to 335
C=CCOC(=O)NC(=O)C(C)(c1ccccc1)c1ccccc1 | 89
CNc1c([N+](=O)[O-])ccc(Cl)c1Cl | 82

SMILES | melting point [°C]
CC(C)(C)OC(=O)N[C@@H](CC(=O)O)C(=O)OC(C)(C)C | 97 to 99
COC(=O)[C@H](Cc1ccc(NC(=O)c2c(Cl)cccc2Cl)cc1)NC(=O)OC(C)(C)C | 148 to 151
Cc1ccc(-n2ncc(C(=O)O)n2)cc1 | 209 to 211
CC1Sc2c(C(=O)O)c(=O)c3cc(F)c(N4CCC(N)C4)cc3n21 (stereo not given) | 238 to 240
COc1ccc2c(c1)CCC1C2CCC2(C)C(=O)C(Br)CC12 (stereo not given) | 146 to 149
CNS(=O)(=O)OCC(=O)N(c1c(C)ccc2ccccc12)C1CCOC1=O (stereo not given) | 190 to 194
CN1CC(=O)Nc2ccc(C#N)cc2C1=O | 256 to 258
CN1c2ccc(-c3ccccc3)cc2Sc2cc(-c3ccccc3)ccc21 | 239 to 241
C=CC(c1ccc(F)cc1)c1c(C)c(NC=O)c(C)c(C)c1O (stereo not given) | 168 to 170
COc1ccc(-c2nc(CCl)co2)s1 | 64 to 65
COc1ccc(N(CCN2CCC(C(=O)c3ccc(F)cc3)CC2)C(=O)c2ccc(C#N)cc2)cc1 | 136 to 149
CCOC(=O)Cn1c(=O)n(-c2ccccc2Cl)c(=O)c2c(C)c(C(=O)OCC)c(C)cc21 | 158 to 159
CC(=O)N1CCCC(=O)c2cc(Cl)c(Cl)cc2CCC1=O | 163 to 165
Cc1cc(C(=O)CCCC(=O)c2cc(C)c(O)c(C(C)(C)C)c2)cc(C(C)(C)C)c1O | 156 to 158
CCCC(=O)c1ccnc(Cl)c1NC(=O)c1ccccc1F | 142
CC1(C)C(=O)N(c2ccc([N+](=O)[O-])c(C(F)(F)F)c2)C(=O)N1CCCCCN1C(=O)N(c2ccc([N+](=O)[O-])c(C(F)(F)F)c2)C(=O)C1(C)C | 163 to 164
Sc1nc2cc(C(c3ccccc3)n3ccnc3)ccc2[nH]1 (stereo not given) | 260
N=C(NO)c1ccc(-c2cccc(-c3nc4cc(C(=N)NO)ccc4[nH]3)c2O)cc1 | 322 to 325
N#CCCN(N)c1nc2ccccc2o1 | 169 to 170
CC1(C)SC(c2cccnc2)NC1C(=O)O (stereo not given) | 164 to 165
Cc1cccc(NC(=O)NCC(=O)N2C(C(=O)OC(C)(C)C)CCCC2c2ccccc2)c1 (stereo not given) | 123
Cc1ccc(-c2ccc3c(c2)C=C(CN2CCC(NC(=O)C(F)(F)F)CC2)CCO3)cc1 | 94 to 96
CCOC(=O)C=C(C)C=CC=C(C)C=Cc1c(Cl)cc(OC)c(Cl)c1Cl | 126 to 128
O=C(O)c1cccc(S(=O)(=O)Cc2c(O[C@H](Cn3ccnc3)c3ccccc3)ccc3c2CCCC3=O)c1 | 236 to 238
CCCCn1c(=O)n(C2OC(CO)C(O)C2O)c2nc(N)[nH]c(=O)c21 (stereo not given) | > 230
